Results from patent US20240306640A1, “BIOCIDAL MIXTURES” (LANXESS Deutschland GmbH, priority 2021, published 2024).

Experiments:
Assay in all cases: MIC, suppression of radial hyphal growth on malt extract nutrient agar
Format in all cases: cell-based
Aspergillus versicolor = details: Example 3 synergism test, 26° C., read-out: MIC (ppm) Aspergillus versicolor
Protocol: (§1) Pieces of mycelium were punched out of a colony of the appropriate mold and incubated at 26° C. on a nutrient agar containing malt extract. Here, hyphal growth with and without active ingredient was compared.
(§2) The synergism was determined according to the method described by Kull et al. (F. C. Kull, P. C. Eismann, H. D. Sylvestrowicz, R. L. Mayer, Applied Microbiology 1961, 9, 538-541). The following relationships apply:
(§3) [formula] • SI=1 means additivity • SI>1 means antagonism • SI<1 means synergism • Qa=concentration of substance A which is the MIC • Qb=concentration of substance B which is the MIC • QA=concentration of substance A in the concentration of A/B at which microbial growth is suppressed • Qb=concentration of substance B in the concentration of A/B at which microbial growth is suppressed 3.1 Combinations of AZO and IPBC Against the Molds Aspergillus niger and Aspergillus versicolor

Aspergillus niger = details: Example 3 synergism test, 26° C., read-out: MIC (ppm) Aspergillus niger
Protocol: as §1, §2, §3

Stachybotrys chartarum = details: Example 3 synergism test, 26° C., read-out: MIC against Stachybotrys chartarum (ppm)
Protocol: (§4) For this purpose, pieces of mycelium were punched out of a colony of the appropriate mold and incubated at 26° C. on a nutrient agar containing malt extract. Here, hyphal growth with and without active ingredient was compared.
as §1, §2, §3

Trichoderma virens = details: Example 3 synergism test, 26° C., read-out: MIC against Trichoderma virens (ppm)
Protocol: as §4, §1, §2, §3

[1] = tested on: Cladosporium cladosporioides; details: Example 3 synergism test, 26° C., read-out: MIC against Cladosporium cladosporioides (ppm)
Protocol: as §4, §1, §2, §3

CO/C=C(/C(=O)OC)c1ccccc1Oc1cc(Oc2ccccc2C#N)ncn1 [AZO, methyl (E)-2-{2-[6-(2-cyanophenoxy)pyrimidin-4-yloxy]phenyl}-3-methoxyacrylate]
MIC (Aspergillus versicolor): 100 µg/mL
MIC (Aspergillus niger): 5000 µg/mL
MIC (Stachybotrys chartarum): 100 µg/mL
MIC (Trichoderma virens): 1000 µg/mL
MIC [1]: 5 µg/mL
